Source: patent US20070265261A1, “Dpp-IV Inhibitors” (priority 2004, published 2007)

The compounds below were run against T1, DPP-IV (Homo sapiens, UniProt P27487) (assay: Inhibition of DPP-IV peptidase activity, continuous fluorimetric assay (cleavage of Gly-Pro-AMC)).
T1 construct: Soluble human DPP-IV lacking the transmembrane anchor (Gly31-Pro766); Pre-Pro-alpha-mating factor leader (secretion signal) (N, cleaved yes); made in house
Format: biochemical
Procedure: Inhibition of DPP-IV peptidase activity was monitored with a continuous fluorimetric assay. This assay is based on the cleavage of the substrate Gly-Pro-AMC (Bachem) by DPP-IV, releasing free AMC. The assay is carried out in 96-well microtiter plates. In a total volume of 100 μL, compounds are preincubated with […] DPP-IV employing a buffer containing 10 mM Hepes, 150 mM NaCl, 0.005% Tween 20 (pH 7.4). […] The final concentration of DMSO is 1%. The inhibitory potential of the compounds were determined.
Soluble human DPP-IV lacking the transmembrane anchor (Gly31-Pro766) was expressed in a recombinant YEAST-strain as Pre-Pro-alpha-mating fusion. The secreted product (rhuDPP-IV-Gly31-Pro766) was purified from fermentation broth (>90% purity).

T1 sequence (P27487 31-766): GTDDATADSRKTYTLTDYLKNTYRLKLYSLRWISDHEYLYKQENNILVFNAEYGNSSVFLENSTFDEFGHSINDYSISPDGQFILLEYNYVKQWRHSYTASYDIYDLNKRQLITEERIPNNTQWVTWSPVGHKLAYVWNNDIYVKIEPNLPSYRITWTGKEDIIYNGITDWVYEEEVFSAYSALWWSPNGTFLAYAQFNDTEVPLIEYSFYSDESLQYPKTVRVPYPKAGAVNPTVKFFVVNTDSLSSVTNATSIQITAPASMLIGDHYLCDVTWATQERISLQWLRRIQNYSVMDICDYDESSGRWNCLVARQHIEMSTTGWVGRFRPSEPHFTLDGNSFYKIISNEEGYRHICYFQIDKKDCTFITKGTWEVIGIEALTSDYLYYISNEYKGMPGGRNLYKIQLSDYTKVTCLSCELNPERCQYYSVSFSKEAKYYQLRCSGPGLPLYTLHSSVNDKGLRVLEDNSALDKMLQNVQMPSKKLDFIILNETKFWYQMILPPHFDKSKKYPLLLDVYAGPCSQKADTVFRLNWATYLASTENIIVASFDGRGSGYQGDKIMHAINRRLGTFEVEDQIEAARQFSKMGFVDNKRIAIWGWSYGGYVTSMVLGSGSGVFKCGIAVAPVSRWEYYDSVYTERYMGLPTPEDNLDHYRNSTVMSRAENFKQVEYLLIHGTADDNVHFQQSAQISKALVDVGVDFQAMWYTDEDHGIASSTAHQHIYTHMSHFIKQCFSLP

SMILES | IC50
N[C@@H](Cc1cc(F)ccc1F)C1CCN(C(=O)c2cnccn2)CC1 (single isomer, unassigned) [Example 44] | 101 to 1000 nM
N[C@@H](Cc1cc(F)ccc1F)C1CCN(C(=O)c2ccc(C(F)(F)F)nc2)CC1 (single isomer, unassigned) [Example 47] | 1000 to 2000 nM
N[C@@H](Cc1cc(F)ccc1F)C1CCN(C(=O)c2ccnc(C(F)(F)F)n2)CC1 (single isomer, unassigned) [Example 50] | 101 to 1000 nM
N[C@@H](Cc1cc(F)ccc1F)C1CCN(C(=O)c2ccnn2C(F)F)CC1 (single isomer, unassigned) [Example 53] | 1000 to 2000 nM
N[C@@H](Cc1cc(F)c(F)cc1F)C1CCN(C(=O)c2ccnc(C(F)(F)F)n2)CC1 (single isomer, unassigned) [Example 65] | 1000 to 2000 nM
N[C@H](Cc1cccc(Cl)c1)C1CCNCC1 (stereo in doubt) [Example 7, 2-(3-Chloro-phenyl)-1-piperidin-4-yl-ethylamine] | 101 to 1000 nM
CC(C)(C)OC(=O)N1CCC(C(N)Cc2cccc(Cl)c2)CC1 (stereo not shown) [Example 6, 4-[1-Amino-2-(3-chloro-phenyl)-ethyl]-piperidine-1-carboxylic acid tert.-butyl ester] | 101 to 1000 nM
N[C@H](Cc1cccc(Cl)c1)C1CCN(C(=O)c2ncccn2)CC1 [Example 8, {4-[(R)-1-Amino-2-(3-chloro-phenyl)-ethyl]-piperidin-1-yl}-pyrimidin-2-yl-methanone] | < 100 nM
NC(Cc1cccc(Cl)c1)C1CCN(C(=O)C2CC2)CC1 (stereo not shown) [Example 9] | 101 to 1000 nM
NC(Cc1cccc(Cl)c1)C1CCN(C(=O)c2ccccc2)CC1 (stereo not shown) [Example 10] | < 100 nM
NC(Cc1cccc(Cl)c1)C1CCN(C(=O)c2cccnc2)CC1 (stereo not shown) [Example 11] | < 100 nM
NC(Cc1cccc(Cl)c1)C1CCN(C(=O)CC2CC2)CC1 (stereo not shown) [Example 12] | 101 to 1000 nM
NC(Cc1cccc(Cl)c1)C1CCN(C(=O)C2CCOC2)CC1 (stereo not shown) [Example 13] | 101 to 1000 nM
NC(Cc1cccc(Cl)c1)C1CCN(C(=O)Cc2ccccc2)CC1 (stereo not shown) [Example 14] | 101 to 1000 nM
NC(Cc1cccc(Cl)c1)C1CCN(C(=O)c2cnccn2)CC1 (stereo not shown) [Example 15] | < 100 nM
NC(Cc1cccc(Cl)c1)C1CCN(C(=O)C2(C(F)(F)F)CC2)CC1 (stereo not shown) [Example 16] | 101 to 1000 nM
NC(Cc1cccc(Cl)c1)C1CCN(C(=O)c2ccc(C(F)(F)F)nc2)CC1 (stereo not shown) [Example 17] | < 100 nM
NC(Cc1cccc(Cl)c1)C1CCN(C(=O)c2cn[nH]c2)CC1 (stereo not shown) [Example 18] | 101 to 1000 nM
Cn1cc(C(=O)N2CCC(C(N)Cc3cccc(Cl)c3)CC2)c(C(F)(F)F)n1 (stereo not shown) [Example 19] | < 100 nM
NC(Cc1cccc(Cl)c1)C1CCN(C(=O)c2ncccn2)CC1 (stereo not shown) [Example 20] | < 100 nM
N[C@@H](Cc1cccc(Cl)c1)C1CCN(C(=O)c2ncccn2)CC1 [Example 21] | 1000 to 2000 nM
NC(Cc1cccc(Cl)c1)C1CCN(C(=O)c2ccnnc2)CC1 (stereo not shown) [Example 22] | < 100 nM
NC(Cc1cccc(Cl)c1)C1CCN(C(=O)c2cncnc2)CC1 (stereo not shown) [Example 23] | < 100 nM
Cc1cc(C(=O)N2CCC(C(N)Cc3cccc(Cl)c3)CC2)no1 (stereo not shown) [Example 24] | < 100 nM

SMILES | IC50
NC(Cc1cccc(Cl)c1)C1CCN(C(=O)c2ccnn2C(F)F)CC1 (stereo not shown) [Example 25] | < 100 nM
NC(Cc1cccc(Cl)c1)C1CCN(C(=O)c2ccn(C(F)F)n2)CC1 (stereo not shown) [Example 26] | < 100 nM
Cn1cncc1C(=O)N1CCC(C(N)Cc2cccc(Cl)c2)CC1 (stereo not shown) [Example 27] | < 100 nM
Cn1ncc(C(=O)N2CCC(C(N)Cc3cccc(Cl)c3)CC2)c1C(F)(F)F (stereo not shown) [Example 28] | < 100 nM
Cn1cnc(C(=O)N2CCC(C(N)Cc3cccc(Cl)c3)CC2)c1 (stereo not shown) [Example 29] | 101 to 1000 nM
Cn1nc(C(=O)N2CCC(C(N)Cc3cccc(Cl)c3)CC2)cc1C(F)(F)F (stereo not shown) [Example 30] | < 100 nM
Cn1nc(C(F)(F)F)cc1C(=O)N1CCC(C(N)Cc2cccc(Cl)c2)CC1 (stereo not shown) [Example 31] | 101 to 1000 nM
NC(Cc1cccc(Cl)c1)C1CCN(C(=O)c2cnccc2C(F)(F)F)CC1 (stereo not shown) [Example 32] | < 100 nM
NC(Cc1cccc(Cl)c1)C1CCN(C(=O)c2cc(C(F)(F)F)n[nH]2)CC1 (stereo not shown) [Example 33] | 101 to 1000 nM
NC(Cc1cccc(Cl)c1)C1CCN(S(=O)(=O)C2CC2)CC1 (stereo not shown) [Example 34, 2-(3-Chloro-phenyl)-1-(1-cyclopropanesulphonyl-piperidin-4-yl)-ethylamine] | < 100 nM
NC(Cc1cccc(Cl)c1)C1CCN(S(=O)(=O)c2ccccc2)CC1 (stereo not shown) [Example 35] | < 100 nM
NC(Cc1cccc(Cl)c1)C1CCN(S(=O)(=O)Cc2ccccc2)CC1 (stereo not shown) [Example 36] | < 100 nM
NC(Cc1cc(F)ccc1F)C1CCN(S(=O)(=O)C2CC2)CC1 (stereo not shown) [Example 37] | < 100 nM
N[C@H](Cc1cc(F)ccc1F)C1CCN(S(=O)(=O)C2CC2)CC1 [Example 38] | < 100 nM
N[C@@H](Cc1cc(F)ccc1F)C1CCN(S(=O)(=O)C2CC2)CC1 [Example 39] | 101 to 1000 nM
CC(C)(C)OC(=O)N1CCC(C(N)Cc2cc(F)ccc2F)CC1 (stereo not shown) [Example 40, 4-[1-Amino-2-(2,5-difluoro-phenyl)-ethyl]-piperidine-1-carboxylic acid tert-butyl ester] | < 100 nM
N[C@H](Cc1cc(F)ccc1F)C1CCN(C(=O)c2ncccn2)CC1 [Example 41] | < 100 nM
N[C@@H](Cc1cc(F)ccc1F)C1CCN(C(=O)c2ncccn2)CC1 [Example 42] | 1000 to 2000 nM
N[C@H](Cc1cc(F)ccc1F)C1CCN(C(=O)c2cnccn2)CC1 [Example 43] | < 100 nM
NC(Cc1cc(F)ccc1F)C1CCN(C(=O)c2cnccn2)CC1 (stereo not shown) [Example 45] | < 100 nM
N[C@H](Cc1cc(F)ccc1F)C1CCN(C(=O)c2ccc(C(F)(F)F)nc2)CC1 [Example 46] | < 100 nM
NC(Cc1cc(F)ccc1F)C1CCN(C(=O)c2ccc(C(F)(F)F)nc2)CC1 (stereo not shown) [Example 48] | < 100 nM
N[C@H](Cc1cc(F)ccc1F)C1CCN(C(=O)c2ccnc(C(F)(F)F)n2)CC1 [Example 49] | < 100 nM
NC(Cc1cc(F)ccc1F)C1CCN(C(=O)c2ccnc(C(F)(F)F)n2)CC1 (stereo not shown) [Example 51] | < 100 nM

SMILES | IC50
N[C@H](Cc1cc(F)ccc1F)C1CCN(C(=O)c2ccnn2C(F)F)CC1 [Example 52] | < 100 nM
NC(Cc1cc(F)ccc1F)C1CCN(C(=O)c2cnc(C(F)(F)F)nc2)CC1 (stereo not shown) [Example 54] | < 100 nM
NC(Cc1cc(F)ccc1F)C1CCN(C(=O)c2ncc(F)cc2F)CC1 (stereo not shown) [Example 55] | < 100 nM
NC(Cc1cc(F)ccc1F)C1CCN(C(=O)c2ccn(C(F)F)n2)CC1 (stereo not shown) [Example 56] | < 100 nM
NC(Cc1cc(F)ccc1F)C1CCN(C(=O)c2ncccc2C(F)(F)F)CC1 (stereo not shown) [Example 57] | < 100 nM
NC(Cc1cc(F)ccc1F)C1CCN(C(=O)c2cc(C(F)(F)F)ccn2)CC1 (stereo not shown) [Example 58] | < 100 nM
NC(Cc1cc(F)ccc1F)C1CCN(C(=O)c2cccc(C(F)(F)F)n2)CC1 (stereo not shown) [Example 59] | < 100 nM
N[C@H](Cc1cc(F)ccc1F)C1CCN(C(=O)c2nccc(C(F)(F)F)n2)CC1 [Example 60] | < 100 nM
N[C@@H](Cc1cc(F)ccc1F)C1CCN(C(=O)c2nccc(C(F)(F)F)n2)CC1 [Example 61] | 101 to 1000 nM
N[C@H](Cc1cc(F)c(F)cc1F)C1CCN(C(=O)c2ncccn2)CC1 [Example 63, {4-[(R)-1-amino-2-(2,4,5-trifluoro-phenyl)-ethyl]-piperidine-1yl}-pyrimidine-2-yl-methanone] | < 100 nM
N[C@H](Cc1cc(F)c(F)cc1F)C1CCN(C(=O)c2ccnc(C(F)(F)F)n2)CC1 [Example 64] | < 100 nM
NC(Cc1cc(F)c(F)cc1F)C1CCN(C(=O)c2ccnc(C(F)(F)F)n2)CC1 (stereo not shown) [Example 66] | < 100 nM
N[C@H](Cc1cc(F)c(F)cc1F)C1CCN(C(=O)c2ccc(C(F)(F)F)nc2)CC1 [Example 67] | < 100 nM
N[C@H](Cc1cc(F)cc(F)c1F)C1CCN(C(=O)c2ncccn2)CC1 [Example 68] | 101 to 1000 nM
N[C@H](Cc1cc(F)cc(F)c1F)C1CCN(C(=O)c2ccnc(C(F)(F)F)n2)CC1 [Example 69] | < 100 nM
CC(C)(C)OC(=O)N1CCCC(C(N)Cc2cccc(Cl)c2)C1 (stereo not shown) [Example 70, 3-[1-Amino-2-(3-chloro-phenyl)-ethyl]-piperidine-1-carboxylic acid tert.-butyl ester] | 101 to 1000 nM
NC(Cc1cccc(Cl)c1)C1CCCNC1 (stereo not shown) [Example 71, 2-(3-Chloro-phenyl)-1-piperidin-3-yl-ethylamine] | 1000 to 2000 nM
CS(=O)(=O)Nc1cccc(C(=O)N2CCC(C(N)Cc3cccc(Cl)c3)CC2)c1 (stereo not shown) [Example 72, N-(3-{4-[1-Amino-2-(3-chloro-phenyl)-ethyl]-piperidine-1-carbonyl}-phenyl)-methane-sulphonamide] | < 100 nM
NC(Cc1cccc(Cl)c1)C1CCN(c2ncccn2)CC1 (stereo not shown) [Example 73] | 101 to 1000 nM
NC(Cc1cc(F)ccc1F)C1CCN(C(=O)N2CCC(F)(F)C2)CC1 (stereo not shown) [Example 74, {4-[1-Amino-2-(2 5-difluoro-phenyl)-ethyl]-piperidin-1-yl}-(3,3-difluoro-pyrrolidin-1-yl)-methanone] | < 100 nM
NC(Cc1cccc(Cl)c1)C1CCN(C(=O)N2CCOCC2)CC1 (stereo not shown) [Example 75] | < 100 nM
NC(Cc1cccc(Cl)c1)C1CCN(C(=O)N2CCCC2)CC1 (stereo not shown) [Example 76] | < 100 nM
